Data on three compounds can be found in BindingDB's records for doi:10.1021/jm0503244 (Merck Research Laboratories, 2005).

Assay in all cases: S1P Receptor Binding Assay
The target in assay [1] is Sphingosine 1-phosphate receptor 5 (Homo sapiens, UniProt Q9H228). To be noted: 25 °C. The method, then:
(§1) The assay measures the displacement of [33P]-labeled sphingosine-1-phosphate (S1P) by test compounds from human S1P receptors expressed on CHO cell membranes. Binding was performed for 60 min at room temperature and terminated by collecting the membranes onto GF/B filter plates with a Packard Filtermate Universal Harvester. Filter bound radionuclide was measured on a PerkinElmer 1450 MicroBeta. Specific binding was calculated by subtracting radioactivity that remained in the presence of 1000-fold excess of unlabeled S1P.

Assay [2] concerns the target T1, Sphingosine 1-phosphate receptor 4 (Homo sapiens, UniProt O95977).
T1 sequence (O95977 whole entry): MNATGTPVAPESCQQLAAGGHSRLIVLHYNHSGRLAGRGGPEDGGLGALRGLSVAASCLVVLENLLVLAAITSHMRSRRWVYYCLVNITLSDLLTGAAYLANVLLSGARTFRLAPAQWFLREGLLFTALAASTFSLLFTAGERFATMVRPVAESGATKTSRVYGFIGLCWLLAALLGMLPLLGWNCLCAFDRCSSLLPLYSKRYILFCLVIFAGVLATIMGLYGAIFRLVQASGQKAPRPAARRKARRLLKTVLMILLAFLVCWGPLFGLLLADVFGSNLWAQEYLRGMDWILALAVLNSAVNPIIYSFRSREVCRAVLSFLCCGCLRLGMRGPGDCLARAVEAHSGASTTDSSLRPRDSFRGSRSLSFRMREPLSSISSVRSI
To be noted: 25 °C. How it is done:
as §1

Assay [3] concerns the target Sphingosine 1-phosphate receptor 3 (Homo sapiens, UniProt Q99500). To be noted: pH 7.5; 22 °C. The method, then:
as §1

Chain of Sphingosine 1-phosphate receptor 3 (Q99500 whole entry): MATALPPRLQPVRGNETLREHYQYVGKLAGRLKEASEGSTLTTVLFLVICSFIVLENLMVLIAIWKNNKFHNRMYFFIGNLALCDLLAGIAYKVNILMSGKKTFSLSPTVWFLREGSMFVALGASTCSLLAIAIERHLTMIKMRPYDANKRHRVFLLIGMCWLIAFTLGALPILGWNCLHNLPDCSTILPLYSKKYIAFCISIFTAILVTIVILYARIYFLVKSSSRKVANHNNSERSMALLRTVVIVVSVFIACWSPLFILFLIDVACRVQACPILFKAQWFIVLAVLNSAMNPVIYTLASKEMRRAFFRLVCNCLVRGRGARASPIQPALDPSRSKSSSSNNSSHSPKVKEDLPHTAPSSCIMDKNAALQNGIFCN
Chain of Sphingosine 1-phosphate receptor 5 (Q9H228 whole entry): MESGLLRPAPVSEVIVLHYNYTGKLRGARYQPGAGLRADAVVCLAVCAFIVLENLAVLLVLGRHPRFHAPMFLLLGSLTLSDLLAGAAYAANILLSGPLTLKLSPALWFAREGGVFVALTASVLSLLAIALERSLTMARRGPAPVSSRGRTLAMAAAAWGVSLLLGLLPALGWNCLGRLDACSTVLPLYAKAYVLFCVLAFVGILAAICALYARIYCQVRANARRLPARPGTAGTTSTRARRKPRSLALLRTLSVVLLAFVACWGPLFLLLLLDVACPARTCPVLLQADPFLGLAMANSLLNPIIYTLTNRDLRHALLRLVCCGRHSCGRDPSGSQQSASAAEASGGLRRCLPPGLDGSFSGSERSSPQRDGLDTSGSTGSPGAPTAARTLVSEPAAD

The IC50 is the concentration that inhibits the measured activity by half. A lower IC50 goes with greater potency. As for `CCCCc1ccc(-c2nc(-c3ccc(CN4CC(C(=O)O)C4)cc3)no2)cc1` [1-({4-[5-(4-butylphenyl)-1,2,4-oxadiazol-3-yl]phenyl}methyl)azetidine-3-carboxylic acid], the IC50 in assay [1] came to 2.4 nM; in assay [2], 350 nM.
With `CC(C)(C)Cc1ccc(-c2nc(-c3ccc(CN4CC(C(=O)O)C4)cc3)no2)cc1` [1-[(4-{5-[4-(2,2-dimethylpropyl)phenyl]-1,2,4-oxadiazol-3-yl}phenyl)methyl]azetidine-3-carboxylic acid], in assay [3], the IC50 worked out at 10000 nM.
The same measure, in the same setting: next, `CCC(C)(C)c1ccc(-c2nc(-c3ccc(CN4CC(C(=O)O)C4)cc3)no2)cc1` [1-[(4-{5-[4-(2-methylbutan-2-yl)phenyl]-1,2,4-oxadiazol-3-yl}phenyl)methyl]azetidine-3-carboxylic acid]: 3090 nM.
